# From US5683999A, “Cyclic urea HIV protease inhibitors” (The DuPont Merck Pharmaceutical Company, priority 1996, dated 1997)
# Tested on: HIV-1 (RF)
# Test: HIV RNA Assay (HIV-1 infected MT-2 cells)
# Type: cell-based
# Conditions: Human immunodeficiency virus 1, MT2, 72 h; HIV-1 (RF) infected MT-2 cells, 3 days of culture; read-out: IC90 value (concentration of compound required to reduce the HIV RNA level by 90%)
# Procedure: DNA Plasmids and in vitro RNA transcripts
# Plasmid pDAB 72 containing both gag and pol sequences of BH10 (bp 113-1816) cloned into PTZ 19R was prepared according to Erickson-Viitanen et al., AIDS Research and Human Retroviruses (1989) 5:577. The plasmid was linearized with Bam HI prior to the generation of in vitro RNA transcripts using the Riboprobe Gemini system II kit (Promega) with T7 RNA polymerase. Synthesized RNA was purified by treatment with RNase free DNAse (Promega), phenol-chloroform extraction, and ethanol precipitation. RNA transcripts were dissolved in water, and stored a -70° C. The concentration of RNA was determined from the A260.
# Biotinylated capture probes were purified by HPLC after synthesis on an Applied Biosystems (Foster City, Calif.) DNA synthesizer by addition of biotin to the 5' terminal end of the oligonucleotide, using the biotin-phosphoramidite reagent of Cocuzza, Tet. Lett. (1989) 30:6287. […]
# MT-2, CEM, and H9 cells were maintained in RPMI 1640 supplemented with 5% fetal calf serum (FCS), 2 mM L-glutamine and 50 μg/mL gentamycin, all from Gibco. […] Infectious titers of HIV-1(RF) stocks were 1-3×10^7 PFU (plaque forming units)/mL as measured by plaque assay on MT-2 cells (see below). […]
smiles,measurement,value
"Nc1ccn([C@H]2CC[C@@H](CO)O2)c(=O)n1 [ddC, 2',3'-dideoxycytidine]",IC90,0.2 µg/mL
